Assay results as given in publication PMC12501029, “Discovery of a CNS active GSK3 degrader using orthogonally reactive linker screening” (Nature Communications, 2025).
Read-outs that look alike come from different tables or passages of the source.

Columns and labels:
[1] = tested on: GSK3β-HiBiT KI HEK293 cells; experiment: Multiplexed degradation and cell viability assay (Gly-Phe-AFC fluorescence); format: cell-based, human; details: up to 24 h and 1 μM (10 nM, 100 nM, 1 µM; 2, 4, 24 h)
Procedure: For viability tests, GSK3β-HiBiT KI HEK293 cells were seeded onto white-opaque 96-well plates at a density of 2 × 10^4 cells per well. After 16 h, cells were treated with test compounds or DMSO with indicated concentrations for 2, 4 and 24 h. Thirty minutes before the end of treatment, 20 µL of reaction buffer containing Gly-Phe-A FC substrate (1:200 in cell culture media, Chem Cruz, sc506265) added to the each well and cells were returned to cell culture incubator. At the end of the treatment time, HiBiT lytic reagents were prepared according to the manufacturer's instructions (Promega) and 120 µL of reagent dispensed to each well. Fluorescence (viability) and luminescence (degradation) signals were measured by GloMAX discover plate reader (Promega) at the same time. Obtained data analysed using Excel and GraphPad Prism (v10.1.2) as previously described above.

[2] = Discrete i.v./p.o. KH1 (24) PK study and brain penetration; format: in vivo, female Balb/c mice
Excerpt: Fifteen female mice of the Balb/c strain were obtained from Charles River Laboratories, UK. Animals were maintained under a 12-h light/12-h dark cycle, in Thoren mouse caging containing EC0 aspen bedding (DBM, UK), with 'Sizzlenest' and 'Rodent Rolls' nesting material (DBM). Enrichment materials included aspen chew sticks, cardboard houses, tunnels, swings, and sunflower seeds. All animals had ad libitum access to food (5LF2 Extruded Diet, IPS Ltd, UK) and tap water throughout. Temperature and relative humidity were maintained between 19 °C–24 °C and 45%–65%, respectively. All animals received a minimum of 10 days of acclimatisation prior to the start of the study.
The intravenous formulations for KH1 (24) were prepared by dissolving the compound in DMSO. This was then diluted with PEG400, followed by dropwise addition of sterile water to form a complete solution. The resulting formulations consisted of 5% DMSO, 40% PEG400, and 55% water, and contained KH1 (24) at a concentration of 0.1 mg/mL (for the PK study), or 1.0 mg/mL (for the PK/PD study), respectively.
The oral formulation for KH1 (24) was produced by vigorously mixing the compound with a sterile solution containing 0.5% hydroxypropylmethylcellulose in water, until a fine homogenous suspension was formed. The resulting formulation contained KH1 (24) at a concentration of 0.6 mg/mL. Dose formulations were prepared on the day of dosing, and animals were observed regularly after dose administration.
[…] Serial blood samples (10 µL per sample) were collected from the lateral tail vein of three intravenously-dosed mice and three orally-dosed mice at 5, 15 and 30 min, 1, 2, 4, 6, 8, and 24 h after dose administration. Blood samples were diluted into 90 µL of Milli‑Q ultrapure water. The remaining three intravenously-dosed animals were placed under terminal anaesthesia with isoflurane, 2 h after bolus administration. Blood was collected via cardiac puncture and the brains were removed. Two aliquots of 10 µL blood were each diluted into 90 µL of Milli-Q ultrapure water. All blood samples were stored at −20 °C prior to bioanalysis. The concentration of KH1 (24) in blood and brain was determined by UPLC-MS/MS.
Blood samples (10 µL) from study mice were diluted 1× with 90 µL of water immediately when the sample was taken. All calibration, quality control, blanks and double blank samples (all 100 µL volume) were mixed (vortexed) with 300 µL of LCMS grade acetonitrile to precipitate proteins.
For study samples, a volume (30 µL) was mixed (vortexed) with a volume (90 µL) of acetonitrile to precipitate proteins. After protein precipitation, all samples were centrifuged to pellet the proteins. Study samples in Micronics tubes were centrifuged using a Beckman Coutler Allegra C-12R Centrifuge for 10 min at 3750 rpm. All other samples in Eppendorf tubes were centrifuged using a Sigma SciQuip 1–14 centrifuge for 10 min (14,800 rpm/16,163 × g). Supernatant from study samples (80 µL) and calibration samples, QCs, blanks, and double blanks (200 µL) were then transferred to HPLC glass vials containing Milli-Q water (40 µL or 100 µL, respectively), ready for LCMS analysis.

[3] = female, Balb/c, mouse, whole blood, Oral, 3 mg/kg

SMILES: Cn1nc(N2CCC(=O)NC2=O)c2ccc(CN3CCN(Cc4ccc(-c5cn(-c6ccc(-c7cn8nccc(C(=O)Nc9cnccc9N9CCOCC9)c8n7)cc6)nn5)nc4)CC3)cc21 [compound 24]
- impact on cell viability [1]: no impact on cell viability
- Half_Life ([2]; IV, 0.37 mg/kg): 2.3 h
- Vss_obs ([2]; IV, 0.37 mg/kg): 2.0 L/kg
- concentration at 2 h ([2]; female, Balb/c, mouse, brain (unbound), intravenous, 0.37 mg/kg, predicted from brain concentration and measured free fraction, read-out: free concentration in brain): 0.02 nM
- Kp uu at 2 h ([2]; female, Balb/c, mouse, brain / plasma (unbound), iv, 0.37 mg/kg i.v., 2 h, read-out: estimated Kp,uu): 0.05
- Kp at 2 h ([2]; female, Balb/c, mouse, brain / whole blood, intravenous, 0.37 mg/kg i.v., 2 hours, read-out: Brain:Blood Ratio): 0.18
- concentration at 2 h ([2]; female, Balb/c, mouse, brain, intravenous, 0.37 mg/kg i.v., 2 hours, read-out: Mean Brain Concentration): 16 nM
- concentration at 2 h ([2]; female, Balb/c, mouse, plasma (unbound), intravenous, 2 h, 0.37 mg/kg, using predicted free fractions, read-out: unbound total plasma concentration): 0.4 to 0.9 nM
- concentration at 2 h ([2]; female, Balb/c, mouse, whole blood, intravenous, 0.37 mg/kg i.v., 2 hours, read-out: Mean Blood Concentration): 88 nM
- AUC(0-t) ([2]; female, Balb/c, mouse, whole blood, iv, 0.37 mg/kg): 572 ng·h/mL
- clearance ([2]; female, Balb/c, mouse, whole blood, iv, 0.37 mg/kg, read-out: Cl_obs): 10 mL/min/kg
- AUC(0-t) [2, 3]: 82.2 ng·h/mL
- Cmax [2, 3]: 19 ng/mL
- Tmax [2, 3]: 2 h
- bioavailability ([2]; female, Balb/c, mouse, whole blood, Oral, 3 mg/kg, read-out: F (oral bioavailability)): 1.6%
- total mean plasma concentration ([2]; for up to 4 h following i.v. dosing at 0.37 mg/kg): above 65 nM
